From ChEMBL document CHEMBL1150322, “Aminopyrazine CB1 receptor inverse agonists” (Bioorg Med Chem Lett, 2008)
In brackets after ≈: the same amount, converted by molar mass. Each block holds one compound with its values, some of them ahead of it. Activity calls are given as the source filed them. The rule behind the calls is not given here.

What was measured:
[1] = biological target: T1, Cannabinoid receptor 1 (Homo sapiens, UniProt P21554); format: functional, cell-based, Sf9
Description: Antagonist activity at human CB1 receptor expressed in SF9 cells assessed as inhibition of CP-55940-stimulated GTPgammaS binding

[2] = physchem; settings: aqueous, pH 7.4
Description: Aqueous solubility at pH 7.4

[3] = biological target: CYP3A4 (Homo sapiens, UniProt P08684); assay: in vitro; settings: human liver microsomes, probe midazolam
[4] = species: Rattus norvegicus; assay: Decrease in blood insulin level in rat after 18 days; format: functional, organism-based
[5] = biological target: Rattus norvegicus; assay: Ex vivo receptor occupancy by displacement of [3H]CP-55940 from rat CB1 receptor in po dosed rat cerebellum membrane after 3 hrs; format: functional, organism-based
[6] = test system: Homo sapiens; assay: Ex vivo receptor occupancy by displacement of [3H]CP-55940 from human CB1 receptor in […] after 3 hrs; format: functional; settings: read-out: ID50 (the source's name)
[7] = test system: Rattus norvegicus; assay: Reduction in cumulative food intake in subchronic diet-induced rat at 5 mg/kg, po qd after 18 days relative to control; format: functional; parameters: scale not given: the % may be the effect or the level left
[8] = test system: Rattus norvegicus; assay: Reduction in body weight in subchronic diet-induced rat at 5 mg/kg, po qd after 18 days relative to control; format: functional; parameters: scale not given: the % may be the effect or the level left
[9] = Drug level at Tmax in rat plasma at 5 mg/kg, po qd after 19 days; format: ADME, organism-based; parameters: dose 5 mg/kg, route oral; settings: read-out: Drug uptake
[10] = Drug level at Tmax in rat brain at 5 mg/kg, po qd after 19 days; format: ADME, organism-based; parameters: dose 5 mg/kg, route oral; settings: read-out: Drug uptake
[11] = Drug level in rat plasma 5 mg/kg, po qd after 19 days measured 17 hrs after last dose; format: ADME, organism-based; parameters: dose 5 mg/kg, route oral; settings: read-out: Drug uptake
[12] = Drug level in rat brain at 5 mg/kg, po qd after 19 days measured 17 hrs after last dose; format: ADME, organism-based; parameters: dose 5 mg/kg, route oral; settings: read-out: Drug uptake
[13] = species: Rattus norvegicus; assay: Decrease in blood glucose level in rat after 18 days; format: functional, organism-based
[14] = species: Rattus norvegicus; assay: animal or person; settings: po, 24 h, read-out: INH
Description: Inhibition of food intake in overnight fed diet-induced obesity rat model at 5 mg/kg, po after 24 hrs relative to control

[15] = biological target: T1, Cannabinoid receptor 1; format: functional, cell-based, Sf9; remark: listed apart in the source
Description: Inverse agonist at human CB1 receptor expressed in SF9 cells assessed as decrease in GTPgammaS level

[16] = test system: Rattus norvegicus; assay: Inhibition of food intake in overnight fed diet-induced obesity rat model at 10 mg/kg, po after 24 hrs relative to control; format: functional
[17] = species: Homo sapiens; assay: Selectivity for human CB1 receptor over human CB2 receptor
[18] = biological target: Cannabinoid receptor 1 (Rattus norvegicus, UniProt P20272)
Description: Antagonist activity at rat CB1 receptor in SF9 cells assessed as inhibition of CP-55940-stimulated GTPgammaS binding

[19] = biological target: Cannabinoid receptor 2 (Homo sapiens, UniProt P34972)
Description: Antagonist activity at human CB2 receptor in SF9 cells assessed as inhibition of CP-55940-stimulated GTPgammaS binding

[20] = species: Rattus norvegicus; assay: Decrease in blood leptin level in rat after 18 days; format: functional, organism-based
[21] = test system: Rattus norvegicus; assay: Reduction in cumulative food intake in subchronic diet-induced rat at 1 mg/kg, po qd after 18 days relative to control; format: functional; parameters: scale not given: the % may be the effect or the level left
[22] = test system: Rattus norvegicus; assay: Reduction in body weight in subchronic diet-induced rat at 1 mg/kg, po qd after 18 days relative to control; format: functional; parameters: scale not given: the % may be the effect or the level left
[23] = Drug level at Tmax in rat plasma at 1 mg/kg, po qd after 19 days; format: ADME, organism-based; parameters: dose 1 mg/kg, route oral; settings: read-out: Drug uptake
[24] = Drug level at Tmax in rat brain at 1 mg/kg, po qd after 19 days; format: ADME, organism-based; parameters: dose 1 mg/kg, route oral; settings: read-out: Drug uptake
[25] = Drug level in rat plasma 1 mg/kg, po qd after 19 days measured 17 hrs after last dose; format: ADME, organism-based; parameters: dose 1 mg/kg, route oral; settings: read-out: Drug uptake
[26] = Drug level in rat brain at 1 mg/kg, po qd after 19 days measured 17 hrs after last dose; format: ADME, organism-based; parameters: dose 1 mg/kg, route oral; settings: read-out: Drug uptake

Cannabinoid receptor 1 (Rattus norvegicus, UniProt P20272), sequence (P20272 whole entry): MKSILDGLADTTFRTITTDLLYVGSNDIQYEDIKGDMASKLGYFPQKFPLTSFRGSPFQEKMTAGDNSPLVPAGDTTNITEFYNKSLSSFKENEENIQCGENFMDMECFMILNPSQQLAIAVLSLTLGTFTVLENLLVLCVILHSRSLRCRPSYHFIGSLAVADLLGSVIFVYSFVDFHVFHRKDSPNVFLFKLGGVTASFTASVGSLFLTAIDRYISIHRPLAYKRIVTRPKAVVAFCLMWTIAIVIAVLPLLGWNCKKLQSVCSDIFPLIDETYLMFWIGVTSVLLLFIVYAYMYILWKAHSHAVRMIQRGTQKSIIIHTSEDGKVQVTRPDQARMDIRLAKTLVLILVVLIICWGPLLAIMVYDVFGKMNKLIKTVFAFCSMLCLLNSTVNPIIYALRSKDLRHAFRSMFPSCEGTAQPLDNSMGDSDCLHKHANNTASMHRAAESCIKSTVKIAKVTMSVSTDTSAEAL
CYP3A4, sequence (P08684 whole entry): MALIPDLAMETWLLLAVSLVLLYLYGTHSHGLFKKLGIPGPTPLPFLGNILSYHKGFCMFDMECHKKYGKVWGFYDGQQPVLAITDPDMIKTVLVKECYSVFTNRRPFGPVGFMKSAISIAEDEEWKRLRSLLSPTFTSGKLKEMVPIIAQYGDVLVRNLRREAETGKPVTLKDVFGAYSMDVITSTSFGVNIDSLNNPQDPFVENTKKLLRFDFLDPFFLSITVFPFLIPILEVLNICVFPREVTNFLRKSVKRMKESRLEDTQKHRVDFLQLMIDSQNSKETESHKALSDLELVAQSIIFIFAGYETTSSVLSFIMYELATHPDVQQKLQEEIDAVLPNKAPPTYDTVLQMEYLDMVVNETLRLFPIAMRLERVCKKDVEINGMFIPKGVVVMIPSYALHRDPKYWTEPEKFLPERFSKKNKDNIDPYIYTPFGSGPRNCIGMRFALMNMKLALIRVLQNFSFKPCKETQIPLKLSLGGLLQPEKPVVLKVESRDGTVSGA
Cannabinoid receptor 2, sequence (P34972 whole entry): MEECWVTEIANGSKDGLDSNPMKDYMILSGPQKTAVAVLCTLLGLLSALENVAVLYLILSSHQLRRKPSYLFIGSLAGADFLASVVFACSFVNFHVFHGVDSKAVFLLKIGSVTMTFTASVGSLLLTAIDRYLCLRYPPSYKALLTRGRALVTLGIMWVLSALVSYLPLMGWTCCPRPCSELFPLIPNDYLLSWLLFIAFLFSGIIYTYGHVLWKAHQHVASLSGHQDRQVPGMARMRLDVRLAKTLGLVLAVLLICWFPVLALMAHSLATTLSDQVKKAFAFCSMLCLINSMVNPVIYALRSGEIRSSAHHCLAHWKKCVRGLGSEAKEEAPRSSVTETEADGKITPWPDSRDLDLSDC
T1 sequence (P21554 whole entry): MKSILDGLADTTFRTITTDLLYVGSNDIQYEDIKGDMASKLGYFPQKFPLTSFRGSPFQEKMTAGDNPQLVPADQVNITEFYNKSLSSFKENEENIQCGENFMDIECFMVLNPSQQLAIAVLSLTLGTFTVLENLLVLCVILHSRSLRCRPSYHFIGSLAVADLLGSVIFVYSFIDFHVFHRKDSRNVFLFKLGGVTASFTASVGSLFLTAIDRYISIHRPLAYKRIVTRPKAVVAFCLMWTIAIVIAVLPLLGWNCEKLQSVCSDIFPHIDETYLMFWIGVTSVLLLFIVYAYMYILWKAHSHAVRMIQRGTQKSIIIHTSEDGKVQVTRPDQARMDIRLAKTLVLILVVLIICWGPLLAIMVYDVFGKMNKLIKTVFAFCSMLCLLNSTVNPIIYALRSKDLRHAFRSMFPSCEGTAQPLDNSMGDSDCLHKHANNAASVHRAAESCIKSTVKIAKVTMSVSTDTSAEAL

Ki [1]: 0.87 nM
solubility [2]: 25.5 µg/mL (≈ 50.5 µM)
inhibition at 5 µM [3]: < 5%
SMILES: CCNC1(C(N)=O)CCN(c2cnc(-c3ccc(C(F)(F)F)cc3)c(-c3ccnc(Cl)c3)n2)CC1

Ki [1]: 0.8 nM
solubility [2]: 24 µg/mL (≈ 49 µM)
inhibition at 5 µM [3]: 11%
SMILES: CCC(=O)NC1CCN(c2cnc(-c3ccc(C(F)(F)F)cc3)c(-c3ccncc3Cl)n2)CC1

Ki [1]: 2.84 nM
inhibition at 5 µM [3]: < 5%
SMILES: CCNC1(C(N)=O)CCN(c2cnc(-c3ccc(OCC)cc3)c(-c3ccc(OCC)cc3)n2)CC1

Ki [5]: 1.1 nM
Cmax [9]: 346 ng/mL
concentration at 456 h [10]: 318 ng/mL
concentration at 17 h [11]: 3 ng/mL
concentration at 17 h [12]: 65 ng/mL
solubility [2]: 0.3 µg/mL (≈ 0.647 µM)
inhibition at 5 µM [3]: < 5%
SMILES: Cc1c(C(=O)NN2CCCCC2)nn(-c2ccc(Cl)cc2Cl)c1-c1ccc(Cl)cc1 [RIMONABANT]
Activity [4]: Active
ED50 [6]: 0.5 mg/kg
Activity [7]: 13.8%
Activity [8]: 4.1%
Activity [13]: Active
inhibition in vivo at 5 mg/kg [14]: 73%

Ki [1]: 1.75 nM
inhibition at 5 µM [3]: 20.5%
SMILES: CCNC1(C(N)=O)CCN(c2cnc(-c3ccc(F)cc3)c(-c3ccc(Cl)cc3Cl)n2)CC1

Ki [1]: 9.81 nM
solubility [2]: 74.9 µg/mL (≈ 171 µM)
inhibition at 5 µM [3]: 71%
SMILES: CCNC1(C(N)=O)CCN(c2cnc(-c3ccc(Cl)cc3)c(-c3ccncc3)n2)CC1

Ki [1]: 15 nM
solubility [2]: 1.2 µg/mL (≈ 2.5 µM)
inhibition at 5 µM [3]: 10%
SMILES: CCNC1(C(N)=O)CCN(c2cnc(-c3ccc(OCC)cc3)c(-c3ccccc3Cl)n2)CC1

Ki [1]: 0.67 nM
solubility [2]: 21.8 µg/mL (≈ 46.3 µM)
inhibition at 5 µM [3]: 54%
SMILES: CCNC1(C(N)=O)CCN(c2cnc(-c3ccc(Cl)cc3)c(-c3ccnc(Cl)c3)n2)CC1

Ki [1]: 1.66 nM
solubility [2]: 1.25 µg/mL (≈ 2.66 µM)
inhibition at 5 µM [3]: 9.7%
SMILES: CCNC1(C(N)=O)CCN(c2cnc(-c3ccc(Cl)cc3)c(-c3ccccc3Cl)n2)CC1

Ki [1]: 0.91 nM
inhibition at 5 µM [3]: < 5%
SMILES: CCNC1(C(N)=O)CCN(c2cnc(-c3ccc(Cl)cc3)c(-c3ccc(Cl)cc3Cl)n2)CC1

Ki [1]: 32.3 nM
solubility [2]: 36 µg/mL (≈ 78.1 µM)
SMILES: CCNC1(C(N)=O)CCN(c2cnc(-c3ccc(Cl)cc3)c(-c3ccc(C#N)cc3)n2)CC1

Ki [1]: 0.83 nM
IC50 [15]: 4.2 nM
Ratio Ki [17]: > 2000
Ki [18]: 0.83 nM
Ki [19]: 1900 nM
solubility [2]: 23 µg/mL (≈ 49.1 µM)
inhibition at 5 µM [3]: < 5%
SMILES: O=S1(=O)CCN(c2cnc(-c3ccc(C(F)(F)F)cc3)c(-c3ccncc3Cl)n2)CC1
inhibition in vivo at 10 mg/kg [16]: 71%

Ki [1]: 1.2 nM
IC50 [15]: 3.07 nM
Ratio Ki [17]: > 2000
Ki [18]: 2.06 nM
Ki [19]: > 50000 nM
solubility [2]: 38 µg/mL (≈ 79.7 µM)
inhibition at 5 µM [3]: < 5%
SMILES: CCNC1(C(N)=O)CN(c2cnc(-c3ccc(C(F)(F)F)cc3)c(-c3ccnc(Cl)c3)n2)C1
inhibition in vivo at 10 mg/kg [16]: 58%

Ki [1]: 0.24 nM
IC50 [15]: 0.54 nM
Ki [5]: 4.4 nM
Cmax [23]: 121 ng/mL
concentration at 456 h [24]: 235 ng/mL
Cmax [9]: 346 ng/mL
concentration at 456 h [10]: 630 ng/mL
concentration at 17 h [25]: 44.2 ng/mL
concentration at 17 h [26]: 110 ng/mL
concentration at 17 h [11]: 142 ng/mL
concentration at 17 h [12]: 253 ng/mL
Ratio Ki [17]: > 2000
Ki [18]: 0.41 nM
Ki [19]: 4940 nM
solubility [2]: 4.5 µg/mL (≈ 8.93 µM)
inhibition at 5 µM [3]: < 5%
SMILES: CC(C)C(=O)NC1CCN(c2cnc(-c3ccc(C(F)(F)F)cc3)c(-c3ccncc3Cl)n2)CC1
Activity [20]: Dose-dependent effect
Activity [4]: Active
ED50 [6]: 0.3 mg/kg
Activity [21]: 18.8%
Activity [22]: 4.8%
Activity [7]: 27.6%
Activity [8]: 8.5%
Activity [13]: Active
inhibition in vivo at 5 mg/kg [14]: 80%
